Measured values from patent US6949507B2, “Use of agents which bind G proteins for treating septic shock” (Dana-Farber Cancer Institute, Inc., priority 1997, dated 2005).
“Also recorded” adds a separate entry of the source.

How the values were obtained:
[1] = tested on: LPS-induced lethal endotoxic shock; assay: LPS-induced lethal endotoxic shock in rats; assay type: in vivo, Wistar rats
Experimental: Wistar rats (200 g) were obtained from Charles River Laboratories. Rats were treated with 3 mg/kg mastoparan by intravenous injection in the tail vein, immediately followed by 15 mg/kg lead acetate and 5 μg/kg LPS 0111:B4 intravenously. Mortality was assessed up to 96 hours following LPS treatment. Mortality frequency was compared by Fisher exact test and statistical analysis was performed using Yates corrected Chi square test.
To determine the effect of mastoparan in vivo, the effect of mastoparan on LPS-induced lethal endotoxic shock in rats was assessed.

human monocytes [2] = assay: LPS-induced IL-6 and TNF production from freshly isolated human monocytes (ELISA); assay type: cell-based
Text: (§1) Freshly isolated human peripheral blood mononuclear cells (PBMC) and monocytes were obtained from leukopaks (discarded leukocyte from platelet donations). The cells were fractionated on FICOLL-HYPAQUE™ gradients, washed, treated with tris-buffered NH4Cl to eliminate RBCs and washed to obtain PMBCs. Monocytes were obtained by depleting the PBMCs of T cells and NK cells by negative selection asking standard techniques. T cells and NK cells were removed by treatment with anti-CD3 and anti-CD2 monoclonal antibodies followed by goat anti-mouse Ig conjugated magnetic beads at a 10:1 bead:cell ratio. The monocyte preparations were at least 80-85% monocytes, as determined by anti-CD14 staining and forward and slide light scatter analysis using a FACScan (Becton-Dickenson, Elmhurst, Ill.). Less than 2% of the contaminating cells in the monocyte preparation were T cells and no NK cells could be detected. Monocytes were maintained in Ham's F-12 10% FCS, L-Glutamine and penicillin/streptomyocin at 37° C. in 5% CO2.
(§2) Freshly isolated human monocytes, human PBMC and U373-CD14 cells were incubated with 10 ng/ml LPS (E coli 0111:B4, Sigma, St. Louis, Mo.), 100 ng/ml PMA or were untreated in supplemented RPMI [10% FCS; 2 mM L-glutamine and penicillin/streptomycin] with or without various concentrations of mastoparan for 18 hours at 37° C. in 24 well tissue culture dishes. IL-6 and TNF-α levels were determined by ELISA (Endogen Inc., Boston, Mass.) of supernatants harvested at 4 hours (for TNF-α) and at 18 hours (for IL-6) after LPS stimulation.
(§3) In order to determine if the effect of mastoparan on LPS-induced cytokine production was due to a direct effect on monocytes, a highly enriched monocyte population was tested for the effect of LPS and mastoparan on cytokine production from these cells. Freshly isolated human monocytes were treated with mastoparan and LPS, after which IL-6 and TFN cytokine levels were measured in the tissue culture supernatants of the cells (FIG. 3A). […] When mastoparan was used in conjunction with LPS, cytokine production was diminished. […] Mastoparan had little effect on cytokine production from PMA stimulated cells (FIG. 3B), indicating the specificity of mastoparan action, and lack of mastoparan toxicity. Mastoparan had no effect on cell viability as measured by trypan blue uptake even after 36 hours of continuous mastoparan incubation.

U373-CD14 cells = assay: LPS-induced IL-6 production from U373-CD14 transfectants; assay type: cell-based
Experimental: U373 cell CD14 transfectants (U373-CD14) were maintained in EMEM supplemented with 10% FCS, L-Glutamine and penicillin/streptomyocin at 37° C. in 5% CO2.
as §2
In addition, the effect of mastoparan on LSP-induced cytokine production from an LPS responsive, CD14 transfected cell line was determined. LPS treatment of U373-CD14 transfectants induced an LPS dose-dependent production of IL-6 (FIG. 4). […] IL-6 production induced by 10 ng/ml LPS was also ablated by treatment of the cells with mastoparan, while at 100 ng/ml of LPS, mastoparan reduced IL-6 levels by approximately one third. At high concentrations of LPS (1 μg/ml) the IL-6 responses of these cells were not inhibited by treatment with the anti-CD14 monoclonal antibody. […] At LPS concentrations of 1 μg/ml, mastoparan was ineffective at reducing cytokine responses from these cells. Thus, CD14-independent LPS signals were not inhibited by mastoparan.

human PBMCs = assay: LPS-induced IL-6 production from human PBMCs (ELISA); assay type: cell-based; conditions: for inhibition of LPS-induced IL-6 production: LPS stimulated human PBMCs, 10 ng/ml LPS, IL-6 at 18 hours
Text: as §1, §2
Freshly isolated PBMCs were treated with LPS and/or peptides (mastoparan or the MAS-17 control peptide) and IL-6 levels were measured in the tissue culture supernatants of the cells (FIG. 2). PBMCs produced IL-6 in response to LPS, while neither mastoparan nor MAS-17 stimulated IL-6 production from the PBMCs.

human monocytes [3] = assay: Cell viability by trypan blue uptake; assay type: cell-based; conditions: after 36 hours of continuous mastoparan incubation
Experimental: as §3

Erk kinases = assay: Erk 1 and 2 MAP kinase activation in human monocytes (immunoblotting); assay type: cell-based
Experimental: (§4) For detection of p38, phosphorylated p38 and phosphorylated Erk kinases in monocyte lysates, monocytes were subjected to various treatments and lysed in boiling reducing Laemmli sample buffer. The lysates were subjected to electrophoresis through a 10% SDS PAGE gel and were then transferred to nitrocellulose (NC). After washing twice with TBS-Twwen 20(0.1%) the NC was placed in a solution of Ponceau S dye to ensure equal loading and left in blocking buffer [1×TBS; […]; 5% milk] for 1 hour. After blocking and washing, the NC was incubated with anti-p38 N+C terminus (Santa Cruz Biotechnology Inc., Santa Cruz, Calif.) for 2-3 hours or with anti-phosphorylated p38 and Erk antibodies (New England Biolabs, Inc., Beverly, Mass.) for 18 hours. Membranes were washed three times in TBS-Tween 20 and were incubated for 30 minutes with horseradish peroxidase conjugated donkey-α-rabbit antibody in blocking buffer (Amersham Corp., Arlington Heights, Ill.). Membranes were washed an additional six times [3×TBS-Tween-20; 3×TBS], and were developed by exposure to ECL chemicals (Amersham corp., Arlington Heights, Ill.) and visualized by exposure to film.
The lack of substantial LPS-induced Erk kinase phosphorylation in freshly isolated monocytes is consistent with results obtained with other non-transformed human cells (Nick et al., J. Immunol., 156: 4867-4875, 1996). […]

human monocytes [4] = assay: PMA-induced cytokine production from human monocytes; assay type: cell-based; conditions: 100 ng/ml PMA
Experimental: as §2, §3

p38 MAP kinase = assay: LPS-induced p38 MAP kinase phosphorylation / nuclear translocation (immunoblotting); assay type: cell-based, human
Experimental: as §4
For detection of p38 in nuclear extracts, cells after a variety of treatments were subject to lysis and nuclear extraction as described in Lerder et al., J. Immunol. 152:77-86 (1994). The nuclear extracts were subjected to protein quantitation by Micro BCA assay (Pierce, Rockford, Ill.) using a BSA standard. The details of the blotting procedure were the same as above except that […] of extract was used.
Because mastoparan had profound effects on cytokine production and p38 MAP kinase is involved,in LPS induced-signaling, the effect of mastoparan on MAP kinase activation was evaluated. For full activation, p38 MAP kinase requires phosphorylation on both threonine and tyrosine residues (Raingeaud et al., J. Biol. Chem., 270: 7420-7426, 1995). Detection of dual-phosphorylated p38 MAP kinase by monoclonal antibodies specific for the dual-phosphorylated form of p38 was used as a measure of p38 activation. […]

[5] = 3 mg/kg mastoparan i.v. + lead acetate + 5 μg/kg LPS, dead/total
[6] = LPS-stimulated, various concentrations of mastoparan (FIG. 3A)

With mastoparan the “Mortality Total (%)” value ([1]; 3 mg/kg mastoparan i.v. + lead acetate + 5 μg/kg LPS) was 44.4%, the “Mortality 14 hours” value [1, 5] was 7/18 and the “Mortality 24 hours” value [1, 5] was 8/18. The “protection from LPS induced mortality” value ([1]; 3 mg/kg mastoparan i.v., 15 mg/kg lead acetate and 5 μg/kg LPS i.v., p<0.05 at 14 and 24 hours) was “significantly protect”, the “mortality at 96 hours relative to the 24 hour point” value ([1]; experiment continued for 96 hours) was “unchanged” and the “toxic effects when used alone in the model system” value ([1]; mastoparan alone, data not shown) was “did not have any toxic effects”. For the same substance, the “inhibition of IL-6 production in human monocytes” value (human monocytes [2]; [6]) was “dose-dependent inhibition”, the “inhibition of TNF-α production in human monocytes” value (human monocytes [2]; [6]) was “dose-dependent inhibition” and the LPS-induced cytokine production (human monocytes [2]; human monocytes, 13.34 μM mastoparan) was “totally ablated”. The “IL-6 production induced by mastoparan alone” value (human monocytes [2]; human monocytes, without LPS) was “induced neither”, the “TNF production induced by mastoparan alone” value (human monocytes [2]; human monocytes, without LPS) was “induced neither” and the “reduction of IL-6 production in monocytes stimulated with LPS” value (human monocytes [2]; mastoparan as low as 1.67 μM) was “dramatic reductions”. The “reduction of TNF production in monocytes stimulated with LPS” value (human monocytes [2]; mastoparan as low as 1.67 μM) was “dramatic reductions”, the “LPS-induced cytokine production from human monocytes” value (human monocytes [2]; mastoparan in conjunction with LPS, concentration not given) was “inhibition; also recorded: diminished” and the “IL-6 production induced by LPS” value (U373-CD14 cells; U373-CD14 cells, 10 ng/ml LPS) was “ablated”. The “reduction of IL-6 levels” value (U373-CD14 cells; U373-CD14 cells, 100 ng/ml LPS) was “approximately one third”, the “IL-6 / cytokine responses at high LPS (CD14-independent)” value (U373-CD14 cells; U373-CD14 cells, 1 μg/ml LPS) was “ineffective” and the “CD14-dependent LPS induced signal transduction” value (U373-CD14 cells; U373-CD14 transfected cells (FIG. 4)) was “inhibits”. The “inhibition of LPS-induced IL-6 production” value (human PBMCs) was “potent inhibitor”, the “inhibition of LPS-induced IL-6 production” value (human PBMCs; listed as mastoparan) was “inhibits; also recorded: dose-dependent” and the “LPS-induced IL-6 production” value (human PBMCs; human PBMCs, 13.3 μM mastoparan) was “totally ablated”. For the same substance, the “IL-6 production stimulated by peptide alone” value (human PBMCs; human PBMCs, peptide without LPS) was “neither”, the “cell viability as measured by trypan blue uptake” value (human monocytes [3]) was “no effect” and the “Erk kinase activation induced by LPS” value (Erk kinases) was “specific inhibition; also recorded: completely inhibited”. The “Erk kinase activation induced by PMA” value (Erk kinases) was “minimal effects”, the “cytokine production from PMA stimulated cells” value (human monocytes [4]) was “little effect” and the “LPS-induced p38 MAP kinase activity” value (p38 MAP kinase; FIG. 5B) was “reduces”. The “LPS-induced phosphorylation of p38 MAP kinase” value (p38 MAP kinase; monocytes and PBMC) was “inhibition; also recorded: reduced” and the “LPS-induced nuclear translocation of p38” value (p38 MAP kinase; nuclear extracts) was “inhibited”.
